Experiment [1] concerns the target T1, 4NB2.1 biosensor (Salmonella typhimurium, UniProt Q8ZR43, C134D/K63T/L66M/S137G).
T1 construct: expressed in transfected cells; host or cells: E. coli DH10B
Put plainly: Dose response of the evolved 4NB2.1 biosensor to 4NB (fluorescence, RFU/OD). The experiment is classed as cell-based, Escherichia coli. Here is the method:
For sensor variant validation, the subcloned pReg-RamR vectors expressing the sensor variants were transformed into DH10B cells expressing Pramr-GFP. These cultures were then assayed, as described in Biosensor response assay, using eight different concentrations of the 4NB.
Glycerol stocks (20% glycerol) of strains containing the plasmids of interest were inoculated into 1 ml LB medium and grown overnight at 37° C. Twenty microliters of overnight culture was seeded into 900 μl LB medium containing ampicillin and chloramphenicol in a 2-ml 96-deep-well plate sealed with an AeraSeal film. Following growth at 37° C. and 250 r.p.m. for 2 h, cultures were induced with 100 μl of an LB medium solution containing appropriate antibiotics and the inducer molecule dissolved in 10 μl DMSO. Cultures were grown for an additional 4 h at 37° C. and 250 r.p.m. and subsequently centrifuged (3,500 g, 4° C., 10 min). Supernatant was removed, and cell pellets were resuspended in 1 ml PBS. The cell resuspension (100 μl) for each condition was transferred to a 96-well microtiter plate, from which the fluorescence (excitation, 485 nm; emission, 509 nm) and absorbance (600 nm) were measured using the Tecan Infinite M1000 plate reader.
Bar graphs, fluorescence and growth curves, dose-response functions were all plotted in Python 3.6.9 using Matplotlib. Dose-response curves and EC50 values were estimated by fitting to the Hill equation y=d+(a−d)xb(cb+xb)−1 (where y=output signal, b=Hill coefficient, x=ligand concentration, d=background signal, a=maximum signal and c=EC50), with the scipy.optimize.curve_fit library in Python.

Experiment [2] deals with T2, RamR (Salmonella typhimurium, UniProt Q8ZR43).
T2 construct: expressed in transfected cells; host or cells: E. coli DH10B
Kind of experiment: Biosensor response assay, wild-type RamR with Pramr-GFP reporter. It is filed as cell-based. Particulars: pReg-RamR + Pramr-GFP, upon induction. An excerpt:
The wild-type RamR sensor was constitutively expressed on one plasmid (pReg-RamR) in parallel with another plasmid bearing the regulator's cognate promoter upstream of the sfGFP gene (Pramr-GFP). […] To better understand this promiscuous binding activity, norbelladine was docked within the ligand binding pocket of RamR using GNINA 1.0 […], and a conformational pose was identified whereby the phenol moiety of norbelladine forms hydrogen bonds with S137 and T85, while the catechol moiety forms a hydrogen bond with K63.
The pReg-RamR and Pramr-GFP plasmids were co-transformed into DH10B cells, which were then plated on LB agar plates containing appropriate antibiotics. Three separate colonies were picked for each transformation and were grown overnight. The following day, 20 μL of each culture was then used to inoculate six separate wells in a 2-mL 96-deep-well plate (Corning, P-DW-20-C-S) sealed with an AeraSeal film (Excel Scientific) containing 900 μL LB medium, one for each test ligand and a solvent control. […] One hundred microliters of the cell resuspension for each condition was transferred to a 96-well microtiter plate (Corning, 3904), from which the fluorescence (excitation, 485 nm; emission, 509 nm) and absorbance (600 nm) were measured using the Tecan Infinite M1000 plate reader.

Drawing on patent US20240336900A1, “METHODS AND COMPOSITIONS RELATED TO MODIFIED METHYLTRANSFERASES AND ENGINEERED BIOSENSORS” (BOARD OF REGENTS, THE UNIVERSITY OF TEXAS SYSTEM, priority 2023, published 2024), this text covers 4NB2.1 biosensor measurement, EC50 and increase in fluorescence for 2 compounds.

T1 sequence (Q8ZR43 other isoform, or with tags, fused parts or gaps K63T/L66M/C134D/S137G): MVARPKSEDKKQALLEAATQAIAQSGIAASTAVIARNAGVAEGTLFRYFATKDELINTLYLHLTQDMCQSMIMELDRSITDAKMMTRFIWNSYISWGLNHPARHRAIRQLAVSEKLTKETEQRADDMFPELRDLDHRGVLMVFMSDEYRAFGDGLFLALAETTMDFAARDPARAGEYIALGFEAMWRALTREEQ
T2 sequence (Q8ZR43 2-193, added parts left off): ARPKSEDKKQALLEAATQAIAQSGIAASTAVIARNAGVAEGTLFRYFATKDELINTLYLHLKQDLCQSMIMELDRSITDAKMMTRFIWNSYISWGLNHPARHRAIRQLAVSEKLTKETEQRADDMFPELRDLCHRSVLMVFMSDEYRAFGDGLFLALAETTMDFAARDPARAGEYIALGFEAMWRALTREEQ

Broadly, the EC50 is the concentration at which the effect is half-maximal. The low end stands for a more potent agent, the high end for a less potent agent. In the case of `COc1ccc(CNCCc2ccc(O)cc2)cc1O` [4NB, 4-O'Methylnorbelladine], the 4NB2.1 biosensor measurement in experiment [1] (1 uM 4NB supplemented into media) is listed as 200.81 RFU/OD; in experiment [1] (2.5 uM 4NB supplemented into media) it was 240.62 RFU/OD; in experiment [1] (5 uM 4NB supplemented into media), 395.69 RFU/OD; in experiment [1] (10 uM 4NB supplemented into media), 944.28 RFU/OD; in experiment [1] (25 uM 4NB supplemented into media), 5648.44 RFU/OD; in experiment [1] (50 uM 4NB supplemented into media), 21194.72 RFU/OD. The 4NB2.1 biosensor measurement was found to be 43800.94 RFU/OD in experiment [1] (100 uM 4NB supplemented into media), 64506.12 RFU/OD in experiment [1] (250 uM 4NB supplemented into media), 67029.6 RFU/OD in experiment [1] (500 uM 4NB supplemented into media) and 62040.21 RFU/OD in experiment [1] (1000 uM 4NB supplemented into media). In experiment [1] (biosensor developed by directed evolution), this compound registered an EC50 of 20 µM. In experiment [2], the increase in fluorescence was determined as 3.8 fold.
For the compound `Oc1ccc(CCNCc2ccc(O)c(O)c2)cc1` [norbelladine], the increase in fluorescence in experiment [2] is 4.4 fold.
